Patent US9206193B2, “Substituted norindenoisoquinolines, syntheses thereof, and methods of use” (PURDUE RESEARCH FOUNDATION, priority 2010, dated 2015)
Read-outs that look alike come from different tables or passages of the source.

How the values were obtained:
SN12C = assay: NCI DTP antiproliferative screen, renal SN12C; type: cell-based, human
Description: (§1) The norindenoisoquinolines are examined for antiproliferative activity in the National Cancer Institute's Developmental Therapeutics Program (DTP) (Boyd & Paull, Some Practical Considerations and Applications of the National Cancer Institute In Vitro Anticancer Drug Discovery Screen. Drug Development Res. 1995, 34, 91-109; Shoemaker, The NCI60 Human Tumour Cell Line Anticancer Drug screen. Nat. Rev. Cancer 2006, 6, 813-823). Each compound is evaluated against approximately 55 human cell lines representing leukemia, melanoma, and cancers of the lung, colon, brain, breast, ovary, prostate and kidney. After an initial one-dose assay at a single high dose (10^−5 M), only compounds that satisfy the pre-determined threshold inhibition criteria are selected for further 5-dose assay.

DU-145 = assay: NCI DTP antiproliferative screen, prostate DU-145; type: cell-based, human
Description: as §1

UACC-62 = assay: NCI DTP antiproliferative screen, melanoma UACC-62; type: cell-based, human
Description: as §1

SF-539 = assay: NCI DTP antiproliferative screen, CNS SF-539; type: cell-based, human
Description: as §1

OVCAR-3 = assay: NCI DTP antiproliferative screen, ovarian OVCAR-3; type: cell-based, human
Description: as §1

[1] = test system: all human cancer cell lines successfully tested; assay: NCI DTP antiproliferative screen, mean graph midpoint; type: cell-based; details: average GI50 of all cell lines tested; values outside 10^-8 to 10^-4 M taken as the limits
Description: as §1

HCT-116 = assay: NCI DTP antiproliferative screen, colon HCT-116; type: cell-based, human
Description: as §1

HOP-62 = assay: NCI DTP antiproliferative screen, lung HOP-62; type: cell-based, human
Description: as §1

Human recombinant Top1 = target: T1, Human recombinant Top1 (Homo sapiens, UniProt P11387); assay: Topoisomerase I-mediated DNA cleavage reactions; type: biochemical; parameters: key to Top1 cleavage: 0: no activity; +: weak activity; ++: similar activity as CPT; +++ and ++++: greater activity than CPT; ++++: similar activity as 1 uM CPT; details: for Top1 cleavage: semiquantitative, relative to 1 uM CPT, concentrations ranging up to 10 uM
T1 construct: made in house
T1 sequence (P11387 1-765): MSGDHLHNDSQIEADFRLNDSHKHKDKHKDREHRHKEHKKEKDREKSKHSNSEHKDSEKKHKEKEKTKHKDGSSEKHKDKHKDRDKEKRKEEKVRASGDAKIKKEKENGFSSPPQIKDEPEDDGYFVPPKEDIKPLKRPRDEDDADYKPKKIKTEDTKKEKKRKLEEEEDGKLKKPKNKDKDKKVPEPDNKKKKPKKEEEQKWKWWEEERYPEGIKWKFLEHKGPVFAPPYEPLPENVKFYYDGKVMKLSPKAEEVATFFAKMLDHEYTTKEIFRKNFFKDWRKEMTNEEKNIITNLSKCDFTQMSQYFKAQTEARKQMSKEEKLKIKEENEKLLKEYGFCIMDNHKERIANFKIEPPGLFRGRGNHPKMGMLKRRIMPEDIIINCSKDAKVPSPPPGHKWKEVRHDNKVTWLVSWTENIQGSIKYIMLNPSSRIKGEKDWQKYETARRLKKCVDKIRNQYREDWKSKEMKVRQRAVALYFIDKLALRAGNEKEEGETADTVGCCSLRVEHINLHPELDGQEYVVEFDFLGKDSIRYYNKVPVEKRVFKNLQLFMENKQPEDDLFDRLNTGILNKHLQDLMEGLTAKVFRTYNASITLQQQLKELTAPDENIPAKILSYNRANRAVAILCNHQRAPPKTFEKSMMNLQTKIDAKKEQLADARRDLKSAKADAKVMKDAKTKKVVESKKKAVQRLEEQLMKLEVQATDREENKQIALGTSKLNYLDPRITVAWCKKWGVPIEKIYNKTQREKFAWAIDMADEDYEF
Description: Norindenoisoquinolines 14a-f are examined for induction of Top1-mediated DNA cleavage using a 117-bp DNA oligonucleotide encompassing the previously identified Top1 cleavage sites in the 161-bp fragment from pBluescript SK(−) phagemid DNA (Dexheimer & Pommier DNA Cleavage Assay for the Identification of Topoisomerase I Inhibitors. Nat. Protocol. 2008, 3, 1736-1750).
Human recombinant Top1 was purified from baculovirus as previously described.^46 DNA cleavage reactions were prepared as previously reported with the exception of the DNA substrate.^13 Briefly, a 117-bp DNA oligonucleotide (Integrated DNA Technologies) encompassing the previously identified Top1 cleavage sites in the 161-bp fragment from pBluescript SK(−) phagemid DNA was employed. This 117-bp oligonucleotide contains a single 5′-cytosine overhang, which was 3′-end labeled by fill-in reaction with [α-^32P]-dGTP in React 2 buffer (50 mM Tris-HCl, pH 8.0, […], 50 mM NaCl) with 0.5 units of DNA polymerase I (Klenow fragment, New England BioLabs). Unincorporated ^32P-dGTP was removed using mini Quick Spin DNA columns (Roche, Indianapolis, Ind.), and the eluate containing the 3′-end-labeled DNA substrate was collected. Approximately 2 nM of radiolabeled DNA substrate was incubated with recombinant Top1 in 20 μL of reaction buffer [10 mM Tris-HCl (pH 7.5), 50 mM KCl, 5 mM MgCl2, 0.1 mM EDTA, and 15 μg/ml BSA] at 25° C. for 20 min in the presence of various concentrations of compounds. The reactions were terminated by adding SDS (0.5% final concentration) followed by the addition of two volumes of loading dye (80% formamide, 10 mM sodium hydroxide, 1 mM sodium EDTA, 0.1% xylene cyanol, and 0.1% bromphenol blue). Aliquots of each reaction were subjected to 20% denaturing PAGE. Gels were dried and visualized by using a Phosphoimager and ImageQuant software (Molecular Dynamics). For simplicity, cleavage sites were numbered as previously described in the 161-bp fragment.

MDA-MB-435 = assay: NCI DTP antiproliferative screen, breast MDA-MB-435; type: cell-based; details: Homo sapiens
Description: as §1

[2] = 117-bp DNA substrate, gel of FIG. 2
[3] = Homo sapiens, SN12C, read-out: Cytotoxicity GI50 Renal SN12C
[4] = Homo sapiens, DU-145, read-out: Cytotoxicity GI50 Prostate DU-145
[5] = Homo sapiens, UACC-62, read-out: Cytotoxicity GI50 Melanoma UACC-62
[6] = Homo sapiens, read-out: Cytotoxicity GI50 CNS SF-539
[7] = Homo sapiens, OVCAR-3, read-out: Cytotoxicity GI50 Ovarian OVCAR-3
[8] = Homo sapiens, HCT-116, read-out: Cytotoxicity GI50 Colon HCT-116
[9] = MDA-MB-435, read-out: Cytotoxicity GI50 Breast MDA-MB-435
[10] = Homo sapiens, HOP-62, read-out: Cytotoxicity GI50 Lung HOP-62

Top1 cleavage (Human recombinant Top1)	106 (C-T) cleavage site in Top1-mediated DNA cleavage pattern (Human recombinant Top1; [2])	melting point	SMILES	MGM (mean graph midpoint for growth inhibition) [1]	44 (C-G) cleavage site in Top1-mediated DNA cleavage pattern (Human recombinant Top1; [2])	GI50 (SN12C; [3])	GI50 (DU-145; [4])	GI50 (UACC-62; [5])	GI50 (SF-539; [6])	GI50 (OVCAR-3; [7])	GI50 (HCT-116; [8])	GI50 (MDA-MB-435; [9])	GI50 (HOP-62; [10])	further results
–	–	–	COc1cc2cnc3c(c2cc1OC)Cc1c-3cc2c(c1CN(C)CCN(C)C)OCO2 [Compound 14f, 2,3-Dimethoxy-8,9-methylenedioxy-10-(N,N,N′-trimethylethylenediamino)methyl-11H-indeno[1,2-c]isoquinoline]	6.3 µM	–	–	–	–	–	–	–	–	–	GI50 (SN12C): > 100000 nM; GI50 (DU-145): 3400 nM; GI50 (UACC-62): 730 nM; GI50 (SF-539): 11000 nM; GI50 (OVCAR-3): 7400 nM; GI50 (HCT-116): 1900 nM; GI50 (HOP-62): 1500 nM
–	–	–	COc1cc2c3c(n(CCCNCCO)c(=O)c2cc1OC)-c1cc2c(cc1C3=O)OCO2 [MJ-III-65, reference compound]	–	seen	–	–	–	–	–	–	–	–	62 (C-A) cleavage site in Top1-mediated DNA cleavage pattern (Human recombinant Top1; [2]): observed
++	observed	272 to 274 °C (dec.)	COc1cc2cnc3c(c2cc1OC)Cc1c-3cc2c(c1C)OCO2 [Compound 15, 2,3-Dimethoxy-8,9-methylenedioxy-10-methyl-11H-indeno[1,2-c]isoquinoline]	11.8 µM	seen	> 100000 nM	> 100000 nM	700 nM	4600 nM	5800 nM	890 nM	> 100000 nM	7300 nM	97 (T-A) cleavage site in Top1-mediated DNA cleavage pattern (Human recombinant Top1; [2]): observed
++	absent	296 °C (dec.)	COc1cc2cnc3c(c2cc1OC)Cc1c-3cc2c(c1CN1CCN(C)CC1)OCO2 [Compound 14d, 2,3-Dimethoxy-8,9-methylenedioxy-10-(4-methylpiperazin-1-yl)methyl-11H-indeno[1,2-c]isoquinoline]	–	–	–	–	–	–	–	–	–	–	–
+++	–	205 to 207 °C	COc1cc2cnc3c(c2cc1OC)Cc1c-3cc2c(c1CN(C)C)OCO2 [Compound 14a, 2,3-Dimethoxy-8,9-methylenedioxy-10-(dimethylamino)methyl-11H-indeno[1,2-c]isoquinoline]	4.4 µM	–	13000 nM	1600 nM	12000 nM	14000 nM	1400 nM	1500 nM	16000 nM	6700 nM	–
–	observed	–	COc1cc2cnc3c(c2cc1OC)Cc1cc2c(cc1-3)OCO2 [Compound 5, reference compound]	–	seen	–	–	–	–	–	–	–	–	97 (T-A) cleavage site in Top1-mediated DNA cleavage pattern (Human recombinant Top1; [2]): observed
+	absent	–	COc1cc2cnc3c(c2cc1OC)Cc1c-3cc2c(c1CN1CCOCC1)OCO2 [Compound 14e, 2,3-Dimethoxy-8,9-methylenedioxy-10-(4-morpholino)methyl-11H-indeno[1,2-c]isoquinoline]	2.4 µM	–	–	–	–	–	–	–	–	–	GI50 (SN12C): 2300 nM; GI50 (DU-145): 1900 nM; GI50 (UACC-62): ≥ 100000 nM; GI50 (SF-539): 1800 nM; GI50 (OVCAR-3): 1700 nM; GI50 (HCT-116): 1400 nM; GI50 (HOP-62): 2100 nM
+++	–	210 °C (dec.)	COc1cc2cnc3c(c2cc1OC)Cc1c-3cc2c(c1CN1CCCC1)OCO2 [Compound 14b, 2,3-Dimethoxy-8,9-methylenedioxy-10-(pyrrolidin-1-yl)methyl-11H-indeno[1,2-c]isoquinoline]	2.3 µM	–	4400 nM	730 nM	6700 nM	1900 nM	730 nM	640 nM	2500 nM	1200 nM	–

SMILES	Top1 cleavage (Human recombinant Top1)	106 (C-T) cleavage site in Top1-mediated DNA cleavage pattern (Human recombinant Top1; [2])	melting point	MGM (mean graph midpoint for growth inhibition) [1]	44 (C-G) cleavage site in Top1-mediated DNA cleavage pattern (Human recombinant Top1; [2])	GI50 (SN12C; [3])	GI50 (DU-145; [4])	GI50 (UACC-62; [5])	GI50 (SF-539; [6])	GI50 (OVCAR-3; [7])	GI50 (HCT-116; [8])	GI50 (MDA-MB-435; [9])	GI50 (HOP-62; [10])	further results
CC[C@@]1(O)C(=O)OCc2c1cc1n(c2=O)Cc2cc3ccccc3nc2-1 [CPT, camptothecin, reference compound]	++++	–	–	0.0405 µM	not	–	–	–	–	–	–	–	–	37 (T-G) cleavage site in Top1-mediated DNA cleavage pattern (Human recombinant Top1; [2]): observed; GI50 (SN12C; Homo sapiens, SN12C, Table 2, read-out: Cytotoxicity GI50 Renal SN12C): 20 nM; GI50 (DU-145; Homo sapiens, DU-145, Table 2, read-out: Cytotoxicity GI50 Prostate DU-145): 10 nM; GI50 (UACC-62; Homo sapiens, UACC-62, Table 2, read-out: Cytotoxicity GI50 Melanoma UACC-62): 10 nM; GI50 (SF-539; Homo sapiens, Table 2, read-out: Cytotoxicity GI50 CNS SF-539): 10 nM; GI50 (HCT-116; Homo sapiens, HCT-116, Table 2, read-out: Cytotoxicity GI50 Colon HCT-116): 30 nM; GI50 (MDA-MB-435; MDA-MB-435, Table 2, read-out: Cytotoxicity GI50 Breast MDA-MB-435): 40 nM; GI50 (HOP-62; Homo sapiens, HOP-62, Table 2, read-out: Cytotoxicity GI50 Lung HOP-62): 10 nM
